Counter-ions that a name gives are not always drawn.

The subject of one data set is Candida albicans KB-8. In words: Antifungal activity test (in vivo), Candida albicans infection in mice. To be noted: DDY male mice infected i.v. with 10^7 cells; oral, total dose 20 mg/kg at 0, 5, 24 and 48 hours after infection; 10 days observation; number in brackets is the non-medicated control. As to the method:
Antifungal activity test (in vivo):-Candida albicans KB-8 as pre-cultured at 30°C for 4 days was suspended in physiologically saline solution, and the suspension was intravenously injected into DDY strain
male mice of 5 weeks old, every 10 animals being grouped, through the tail vein so as to inoculate a cell number of 10^7 per animal.
The animals were orally medicated with the test compound in the form of 0.5 % methylcellulose suspension at a total dose of 20 mg per kg of the body weight 0, 5, 24 and 48 hours after the infection, and observation was continued for 10 days after the infection. The results are shown in Table 2, wherein the numeral indicates an average number of survival days of 10 animals as one group in contrast to that of the non-medicated (control) group.
For comparison, the following compounds were also tested: [drawing 6] [drawing 7]

The next data set is described as follows: Acute toxicity. To be noted: mouse, in vivo; DDY male mice, oral, 0.5 % methylcellulose suspension, seven days after medication, Probit method. Here is the method:
Acute toxicity:- • DDY strain male mice of 5 weeks old, every 10 mice being grouped, received orally the test compound in the form of 0.5 % methylcellulose suspension at a dose from five kinds increasing with a common ratio of 1.3, and observation on the death of animals was continued. Seven days after the medication, the LD50 value was calculated from the rate of death according to the Probit method.

Data set [1] deals with Cryptococcus neoformans MTU 13001. In words: Antifungal activity test (in vivo), Cryptococcus neoformans infection in mice. The conditions noted are these: DDY male mice infected i.v. with 2 x 10^6 cells, oral; for Survival rate at complete death of non-medicated group (%): total dose 20 mg/kg at 0, 5, 24 and 48 hours; for Average survival day(s): total dose 20 mg/kg, 10 days observation. As to the method: (§1) Antifungal activity test (in vivo):- • Aspergillus fumigatus MTU 16001 or Cryptococcus neoformans MTU 13001 as pre-cultured at 30°C for 4 days was suspended in physiologically saline solution, and the suspension was intravenously injected into DDY strain male mice of 5 weeks old (body weight, 24 - 27 g), every 10 animals being grouped, through the tail vein so as to inoculate a cell number of 2 x 10^6 per animal.
(§2) The animals were orally medicated with the test compound in the form of 0.5 % methylcellulose suspension at a total dose of 20 mg per kg of the body weight 0, 5, 24 and 48 hours after the infection, and observation was continued for 10 days after the infection. The results are shown in Table 3, wherein the numeral indicates an average number of survival days of 10 animals as one group in contrast to that of the non-medicated (control) group.

The subject of data set [2] is Aspergillus fumigatus MTU 16001. In words: Antifungal activity test (in vivo), Aspergillus fumigatus infection in mice. The conditions noted are these: DDY male mice infected i.v. with 2 x 10^6 cells, oral; for Survival rate at complete death of non-medicated group (%): total dose 20 mg/kg at 0, 5, 24 and 48 hours; for Average survival day(s): total dose 20 mg/kg, 10 days observation. As to the method: as §1, §2

Data set [3] can be described thus: Liver weight increase test. Type of data set: in vivo, DDY strain male mice. The conditions noted are these: mice infected with Candida albicans KB-8, survived animals. The text has this:
Liver weight increase test:- • Candida albicans KB-8 was intraveously injected into DDY strain male mice of 5 weeks old, every 20 animals being grouped, at a rate of […] cells per mouse. After infection, the animals were orally medicated with the test compound in the form of 0.5 % methylcellulose suspension once a day for 20 consecutive days, during which observation on the liver weight was continued.
The average liver weight in survived animals as calculated are shown in Table 5, from which it is understood that the liver weight is not increased when the compound of the invention is given at a daily dose of not more than 4 mg/kg, while the liver weight is increased when the compound of Japanese Patent Publn. (unexamined) No. 185571/83 is given at a daily dose of not less than 1 mg/kg.

The mark [4] stands for this setting: dose 0.5 mg/kg p.o. once a day for 20 consecutive days.
Where [5] appears, read: dose 1.0 mg/kg p.o. once a day for 20 consecutive days.
[6] abbreviates: dose 2.0 mg/kg p.o. once a day for 20 consecutive days.
[7] abbreviates: dose 4.0 mg/kg p.o. once a day for 20 consecutive days.
[8] abbreviates: dose 8.0 mg/kg p.o. once a day for 20 consecutive days.

For the compound `CCC(C)(C)S(=O)(=O)CC(O)(Cn1cncn1)c1ccc(Cl)cc1Cl` (stereo not drawn) [II, reference compound], the “Average survival days (control)” value with Candida albicans KB-8 is given as 1.4 (1.0) days.
By LD50 is commonly meant the dose at which mortality reaches 50%. A higher LD50 goes with lower toxicity. As for `CCC(CC)[S+]([O-])CC(O)(Cn1cncn1)c1ccc(Cl)cc1Cl` (single isomer, unassigned) [5A], the LD50 at 168 h in the data set “Acute toxicity” was > 2000 mg/kg. Moreover, the “Average survival days (control)” value in the data set with Candida albicans KB-8 is on record as 8.9 (1.2) days.
With `CCC(C)(C)[S+]([O-])CC(O)(Cn1cncn1)c1ccc(Cl)cc1Cl` (stereo not drawn) [Compound No. 2A, 2-(2,4-dichlorophenyl)-3-tert-pentylsulfinyl-1-(1,2,4-triazol-1-yl)propan-2-ol], in data set [1], the “Survival rate at complete death of non-medicated group (%)” value is 90% and the “Average survival day(s)” value was determined as 743000 s. This compound displayed a median lethal dose (LD50) at 168 h in “Acute toxicity” of 1830 mg/kg. Further, in data set [2], the “Survival rate at complete death of non-medicated group (%)” value came to 70% and the “Average survival day(s)” value came out at 311000 s. Moreover, the “Average survival days (control)” value with Candida albicans KB-8 is given as 9.7 (1.2) days.
Take `CC(=O)N1CCN(c2ccc(OCC3COC(Cn4ccnc4)(c4ccc(Cl)cc4Cl)O3)cc2)CC1` (stereo not drawn) [Ketoconazole, reference compound]: the median lethal dose (LD50) at 168 h in the data set “Acute toxicity” came to 1100 mg/kg. Moreover, the “Average survival days (control)” value with Candida albicans KB-8 was 4.8 (0.8) days.
Consider `CS(=O)(=O)CC(O)(Cn1cncn1)c1ccc(Cl)cc1Cl` (stereo not drawn) [I, reference compound], for which the “Survival rate at complete death of non-medicated group (%)” value turned out to be 80% in data set [1] and 60% in data set [2]. In addition, the “Average survival day(s)” value is 674000 s in data set [1] and 233000 s in data set [2]. Also, the “Average weight of liver” value in data set [3] (setting [4]) was determined as 1.30 g; in data set [3] (setting [5]) it was 1.50 g; in data set [3] (setting [6]) it was 1.70 g; in data set [3] (setting [7]), 1.85 g; in data set [3] (setting [8]), 1.90 g. In addition, the LD50 at 168 h in the data set “Acute toxicity” stood at 770 mg/kg. In addition, the “Average survival days (control)” value in the data set with Candida albicans KB-8 is recorded as 9.6 (1.2) days.
Regarding `CCCCC[S+]([O-])CC(O)(Cn1cncn1)c1ccc(Cl)cc1Cl` (single isomer, unassigned) [1A, 2-(2,4-dichlorophenyl)-3-n-pentylsulfinyl-l-(l,2,4-triazol-1-yl)propan-2-ol oxalate], the “Average weight of liver” value amounted to 1.20 g in data set [3] (setting [4]); 1.18 g in data set [3] (setting [5]); 1.15 g in data set [3] (setting [6]); 1.25 g in data set [3] (setting [7]); 1.60 g in data set [3] (setting [8]). Further, the LD50 at 168 h in “Acute toxicity” came to 1740 mg/kg. The “Average survival days (control)” value in the data set on Candida albicans KB-8 is 9.0 (1.2) days.
Take `CC(C)CC[S+]([O-])CC(O)(Cn1cncn1)c1ccc(Cl)cc1Cl` (single isomer, unassigned) [3A]: the LD50 at 168 h in the data set “Acute toxicity” was > 2000 mg/kg. For the same compound, the “Average survival days (control)” value with Candida albicans KB-8 is 7.7 (1.2) days.
`CCCC(C)[S+]([O-])CC(O)(Cn1cncn1)c1ccc(Cl)cc1Cl` (single isomer, unassigned) [4A]: the LD50 at 168 h in “Acute toxicity” was > 1500 mg/kg. The “Average survival days (control)” value in the data set with Candida albicans KB-8 is 9.2 (1.2) days.

(Values after patent EP0140154A2, “1,2,4-Triazolylpropanols, and their production and use” (SUMITOMO CHEMICAL COMPANY, LIMITED, priority 1983, dated 1985).)
